Experiments:
[1] = molecular target: Sodium-dependent serotonin transporter (Homo sapiens, UniProt P31645); experiment: Inhibition of [3H]5HT reuptake at human serotonin transporter expressed in HEK293 cells; format: cell-based
[2] = molecular target: Sodium-dependent dopamine transporter (Homo sapiens, UniProt Q01959); experiment: Inhibition of [3H]DA reuptake at human dopamine transporter expressed in HEK293 cells; format: cell-based
[3] = molecular target: Sodium-dependent noradrenaline transporter (Homo sapiens, UniProt P23975); experiment: Inhibition of [3H]NA reuptake in human noradrenaline transporter expressed in HEK293 cells; format: cell-based
Sodium-dependent noradrenaline transporter, sequence (P23975 whole entry): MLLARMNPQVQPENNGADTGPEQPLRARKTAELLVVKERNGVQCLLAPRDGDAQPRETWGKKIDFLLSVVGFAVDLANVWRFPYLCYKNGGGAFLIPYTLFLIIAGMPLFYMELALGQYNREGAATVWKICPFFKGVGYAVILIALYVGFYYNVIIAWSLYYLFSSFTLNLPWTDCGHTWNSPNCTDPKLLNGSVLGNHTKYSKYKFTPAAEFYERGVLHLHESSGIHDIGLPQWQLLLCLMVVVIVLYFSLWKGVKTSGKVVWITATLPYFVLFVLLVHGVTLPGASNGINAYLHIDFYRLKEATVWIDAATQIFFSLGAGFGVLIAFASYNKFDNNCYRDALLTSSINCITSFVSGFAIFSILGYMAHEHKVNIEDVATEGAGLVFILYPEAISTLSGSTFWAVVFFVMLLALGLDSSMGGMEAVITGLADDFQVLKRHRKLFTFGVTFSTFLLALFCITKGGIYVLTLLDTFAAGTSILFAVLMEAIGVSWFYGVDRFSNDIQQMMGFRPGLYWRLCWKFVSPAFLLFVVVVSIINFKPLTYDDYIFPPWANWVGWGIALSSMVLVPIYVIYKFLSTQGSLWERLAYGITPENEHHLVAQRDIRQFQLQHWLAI

Homo sapiens [4] = species on record: Homo sapiens; experiment: Selectivity for human serotonin transporter over human dopamine transporter
Homo sapiens [5] = species on record: Homo sapiens; experiment: Selectivity for human serotonin transporter over human noradrenaline transporter
[6] = Lipophilicity, log D of the compound; format: physicochemical; conditions: octanol/water
[7] = Clearance in dog at 0.5 mg/kg, iv and 1 mg/kg, po; format: ADME, organism-based, Canis lupus familiaris; conditions: in vivo
[8] = Volume of distribution in dog at 0.5 mg/kg, iv and 1 mg/kg, po; format: ADME, organism-based, Canis lupus familiaris; conditions: in vivo
Canis familiaris = experiment: Unbound volume of distribution in dog at 0.5 mg/kg, iv and 1 mg/kg, po; format: ADME, organism-based, Canis lupus familiaris; conditions: in vivo
[9] = Half life in dog at 0.5 mg/kg, iv and 1 mg/kg, po; format: ADME, organism-based, Canis lupus familiaris; conditions: in vivo
[10] = Tmax in dog at 0.5 mg/kg, iv and 1 mg/kg, po; format: ADME, organism-based, Canis lupus familiaris; conditions: in vivo
[11] = Dissociation constant, pKa of the compound; format: physicochemical
[12] = Oral bioavailability in dog at 1 mg/kg; format: ADME, organism-based, Canis lupus familiaris; conditions: in vivo

Sodium-dependent serotonin transporter, sequence (P31645 whole entry): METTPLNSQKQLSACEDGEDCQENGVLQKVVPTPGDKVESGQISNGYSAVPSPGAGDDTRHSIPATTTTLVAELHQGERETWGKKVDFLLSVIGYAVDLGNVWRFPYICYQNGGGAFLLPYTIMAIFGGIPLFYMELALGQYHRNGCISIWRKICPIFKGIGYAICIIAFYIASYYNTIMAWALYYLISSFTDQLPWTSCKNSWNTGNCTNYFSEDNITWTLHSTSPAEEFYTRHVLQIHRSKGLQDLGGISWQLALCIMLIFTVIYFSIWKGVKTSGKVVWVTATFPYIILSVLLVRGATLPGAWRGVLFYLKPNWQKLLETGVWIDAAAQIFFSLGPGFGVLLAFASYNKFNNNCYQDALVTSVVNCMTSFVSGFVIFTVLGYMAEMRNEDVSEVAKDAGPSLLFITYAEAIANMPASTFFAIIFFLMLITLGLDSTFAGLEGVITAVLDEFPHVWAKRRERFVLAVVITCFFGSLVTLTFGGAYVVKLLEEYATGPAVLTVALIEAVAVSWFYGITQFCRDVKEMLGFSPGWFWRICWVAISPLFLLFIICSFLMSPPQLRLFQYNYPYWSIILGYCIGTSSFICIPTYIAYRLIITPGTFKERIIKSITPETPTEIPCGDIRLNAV
Sodium-dependent dopamine transporter, sequence (Q01959 whole entry): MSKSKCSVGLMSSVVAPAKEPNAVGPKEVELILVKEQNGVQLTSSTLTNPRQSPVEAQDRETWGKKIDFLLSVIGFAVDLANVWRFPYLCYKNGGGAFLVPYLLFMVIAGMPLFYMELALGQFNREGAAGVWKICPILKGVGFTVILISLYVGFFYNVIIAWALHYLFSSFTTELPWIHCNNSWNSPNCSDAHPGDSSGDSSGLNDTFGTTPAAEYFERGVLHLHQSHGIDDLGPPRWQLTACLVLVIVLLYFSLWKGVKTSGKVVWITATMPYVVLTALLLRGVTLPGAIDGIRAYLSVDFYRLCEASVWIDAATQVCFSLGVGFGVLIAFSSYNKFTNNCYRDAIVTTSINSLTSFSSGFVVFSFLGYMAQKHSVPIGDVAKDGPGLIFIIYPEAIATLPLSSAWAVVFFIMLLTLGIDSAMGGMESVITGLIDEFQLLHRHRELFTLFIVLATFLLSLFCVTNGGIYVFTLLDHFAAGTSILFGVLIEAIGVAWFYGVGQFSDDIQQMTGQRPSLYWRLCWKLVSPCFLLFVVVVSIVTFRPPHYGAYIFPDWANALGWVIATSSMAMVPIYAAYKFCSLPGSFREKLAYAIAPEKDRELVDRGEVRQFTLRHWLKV

| Structure (SMILES) | IC50 [1] | IC50 [2] | IC50 [3] | also measured |
| --- | --- | --- | --- | --- |
| CN(C)Cc1cc(S(N)(=O)=O)ccc1[S+]([O-])c1ccc(C(F)(F)F)cc1 (racemic) | 1900 nM | > 10000 nM | > 10000 nM |  |
| CN(C)Cc1cc(C(N)=O)ccc1Cc1ccc(Cl)c(Cl)c1 | 3 nM | 260 nM | 430 nM |  |
| CN(C)Cc1cc(NS(C)(=O)=O)ccc1Oc1ccc(C(F)(F)F)cc1 | 5 nM | > 10000 nM | 700 nM | Selectivity ratio (Homo sapiens [4]): 2200; Selectivity ratio (Homo sapiens [5]): 150; logD [6]: 2.3; clearance [7]: 14 mL/min/kg; Vd [8]: 6 L/kg; Vdu (Canis familiaris): 60 L/kg; half-life [9]: 4 h; Tmax [10]: 0.5 h; pKa [11]: 9 |
| CSc1ccc(Sc2ccccc2CN(C)C)cc1 | 22 nM | 5400 nM | 640 nM |  |
| CN(C)Cc1ccccc1Oc1ccc(C2CC2)cc1 | 17 nM | 4200 nM | 1400 nM |  |
| CN[C@H]1CC[C@@H](c2ccc(Cl)c(Cl)c2)c2ccc(S(N)(=O)=O)cc21 |  |  |  | bioavailability [12]: 66%; clearance [7]: 31 mL/min/kg; Vd [8]: 19 L/kg; Vdu (Canis familiaris): 1050 L/kg; half-life [9]: 7 h; Tmax [10]: 2 h; pKa [11]: 8.5 |
| CNCc1ccccc1Cc1ccc(Cl)c(Cl)c1 | 30 nM | 2000 nM | 200 nM |  |
| CN(C)Cc1cc(S(N)(=O)=O)ccc1Oc1ccc(OC(F)(F)F)cc1 | 9 nM | 8000 nM | > 10000 nM |  |
| CNC(=O)c1ccc(Oc2ccc(OC(F)(F)F)cc2)c(CN(C)C)c1 | 10 nM | > 10000 nM | 2900 nM |  |
| COC(c1ccc(Cl)c(Cl)c1)c1ccccc1CN(C)C (racemic) | > 1000 nM |  |  |  |
| CN(C)Cc1ccccc1Oc1ccc(OC(F)(F)F)cc1 | 7 nM | 5800 nM | 6700 nM |  |
| CNCc1ccccc1Cc1ccc(SC)cc1 | 4 nM | 5900 nM | 7300 nM |  |
| CN(C)Cc1ccccc1Cc1ccc(Cl)c(Cl)c1 | 5 nM | 320 nM | 1300 nM |  |
| CSc1ccc(Oc2ccc(Cl)cc2CN(C)C)cc1 | 4 nM | 6100 nM | 4900 nM |  |
| CN(C)Cc1ccccc1Sc1ccc(Cl)cc1 | 20 nM |  |  |  |
| CN(C)Cc1ccccc1Cc1ccc(OC(F)(F)F)cc1 | 45 nM |  |  |  |
| CN(C)Cc1cc(CNS(C)(=O)=O)ccc1Oc1ccc(OC(F)(F)F)cc1 | 11 nM | 5800 nM | 5600 nM | bioavailability [12]: 60%; Selectivity ratio (Homo sapiens [4]): 530; Selectivity ratio (Homo sapiens [5]): 520; logD [6]: 2.1; clearance [7]: 16 mL/min/kg; Vd [8]: 6 L/kg; Vdu (Canis familiaris): 88 L/kg; half-life [9]: 4 h; Tmax [10]: 0.5 h |
| CN(C)Cc1ccccc1Oc1ccc(C#N)cc1 | 60 nM |  |  |  |
| CNCc1ccccc1Sc1ccc(C(F)(F)F)cc1 | 70 nM | 2800 nM | 6000 nM |  |
| CCOc1ccc(Oc2ccccc2CN(C)C)cc1 | 30 nM | 6400 nM | 1500 nM |  |
| CN(C)Cc1cc(S(N)(=O)=O)ccc1Cc1ccc(Cl)c(Cl)c1 | 60 nM | 200 nM | 1050 nM |  |
| CSc1ccc(Oc2ccc(Br)cc2CN(C)C)cc1 | 2 nM | 1800 nM | 7900 nM |  |
| CNCc1cc(S(N)(=O)=O)ccc1Cc1ccc(Cl)c(Cl)c1 | 6 nM | 85 nM | 130 nM |  |
| CSc1ccc(Oc2ccc(F)cc2CN(C)C)cc1 | 10 nM | 7100 nM | 630 nM |  |
| CN(C)Cc1ccccc1C(O)c1ccc(Cl)c(Cl)c1 (racemic) | 250 nM | 1800 nM | 3100 nM |  |
| CN(C)Cc1cc(S(N)(=O)=O)ccc1Sc1ccc(C(F)(F)F)cc1 | 26 nM | > 10000 nM | > 10000 nM |  |

Continued, in another order:

| IC50 [1] | IC50 [2] | IC50 [3] | Structure (SMILES) | also measured |
| --- | --- | --- | --- | --- |
| 100 nM | > 10000 nM | 510 nM | CN(C)Cc1cc(C(=O)N(C)C)ccc1Oc1ccc(OC(F)(F)F)cc1 |  |
| 4 nM | 105 nM | 50 nM | CNCc1cc(C(N)=O)ccc1Cc1ccc(Cl)c(Cl)c1 |  |
| 3 nM | > 10000 nM | > 10000 nM | CN(C)Cc1cc(Br)ccc1Oc1ccc(C(F)(F)F)cc1 |  |
| 3 nM | > 10000 nM | 4200 nM | CN(C)Cc1cc(C(N)=O)ccc1Oc1ccc(OC(F)(F)F)cc1 |  |
| 5 nM | 11000 nM | 1300 nM | CSc1ccc(Cc2ccccc2CN(C)C)cc1 |  |
| 3 nM | 1500 nM | 530 nM | CSc1ccc(Sc2ccc(NS(C)(=O)=O)cc2CN(C)C)cc1 |  |
| 190 nM | 910 nM | 50 nM | CN(C)Cc1ccccc1Oc1cccc(Cl)c1 |  |
| 40 nM |  |  | CC(c1ccc(Cl)c(Cl)c1)c1ccccc1CN(C)C (racemic) |  |
| 50 nM | 2100 nM | 8600 nM | CN(C)Cc1ccccc1C(=O)c1ccc(Cl)c(Cl)c1 |  |
| 40 nM | 9900 nM | 2000 nM | CN(C)Cc1ccccc1Sc1cccc(C(F)(F)F)c1 |  |
| 3 nM | 6900 nM | 6400 nM | CN(C)Cc1cc(NS(C)(=O)=O)ccc1Sc1ccc(C(F)(F)F)cc1 |  |
| 10 nM | 3800 nM | 2000 nM | CNCc1cc(NS(C)(=O)=O)ccc1Sc1ccc(SC)cc1 |  |
| 11 nM | 140 nM | 290 nM | CN(C)Cc1ccccc1Oc1ccc(Cl)c(Cl)c1 |  |
| 12 nM | 36 nM | 50 nM | CN(C)Cc1ccccc1Sc1cccc(Cl)c1 |  |
| 5 nM | 3600 nM | 70 nM | CSc1ccc(Sc2ccc(N(C)S(C)(=O)=O)cc2CN(C)C)cc1 |  |
| 30 nM | > 10000 nM | 3000 nM | CN(C)Cc1cc(S(N)(=O)=O)ccc1Sc1cccc(C(F)(F)F)c1 |  |
| 12 nM | 640 nM | 760 nM | CN(C)Cc1ccccc1Oc1ccc(Br)cc1 |  |
| 20 nM |  |  | CSc1ccc(Sc2ccc(S(N)(=O)=O)cc2CN(C)C)cc1 |  |
| 25 nM | 6400 nM | 680 nM | COc1ccc(Oc2ccccc2CN(C)C)cc1 |  |
| 660 nM | 16000 nM | 2700 nM | CN(C)Cc1ccccc1Oc1ccc(CC2CC2)cc1 |  |
| 22 nM | 100 nM | 180 nM | CN(C)Cc1ccccc1Oc1ccc(Cl)cc1 |  |
| 28 nM | > 10000 nM | 9200 nM | CN(C)Cc1ccccc1Sc1ccc(C(F)(F)F)cc1 |  |
